Assays:
Type in all cases: cell-based
[1] = target: T1, E3 ubiquitin-ligase Hakai (Mus musculus, UniProt Q9JIY2); assay: Hakai-dependent ubiquitination assay in 293T cells transfected with Flag-Hakai, v-Src and HA-ubiquitin; conditions: 293T cells transfected with Src, treated 36 h, DMSO as control
T1 construct: expressed in transfected cells; host or cells: HEK293T (293) cells, co-transfected with v-Src and HA-ubiquitin, and in A3 also with myc-E-cadherin
T1 sequence (Q9JIY2 1-491): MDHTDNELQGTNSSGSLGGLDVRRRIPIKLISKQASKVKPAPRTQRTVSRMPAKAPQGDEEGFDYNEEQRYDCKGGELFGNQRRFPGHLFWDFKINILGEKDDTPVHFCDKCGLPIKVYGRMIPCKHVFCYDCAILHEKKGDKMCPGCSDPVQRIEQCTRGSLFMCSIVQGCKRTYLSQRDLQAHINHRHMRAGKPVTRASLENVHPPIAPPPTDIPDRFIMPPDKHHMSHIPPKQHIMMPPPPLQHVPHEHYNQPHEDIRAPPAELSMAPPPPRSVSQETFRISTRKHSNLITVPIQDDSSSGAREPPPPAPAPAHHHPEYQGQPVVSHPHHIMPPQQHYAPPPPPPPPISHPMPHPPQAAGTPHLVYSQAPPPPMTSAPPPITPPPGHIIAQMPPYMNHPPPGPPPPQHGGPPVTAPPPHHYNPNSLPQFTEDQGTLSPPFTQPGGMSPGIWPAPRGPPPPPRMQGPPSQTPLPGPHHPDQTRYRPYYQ
Description: For ubiquitination assays, 750.000 HEK293T cells were seeded in 6-well cell culture plates and after 24 h were transfected with 0.25 μg Src, 0.75 μg Flag-Hakai, and 0.5 μg HA-ubiquitin with Lipofectamin 2000 (Invitrogen, UK). Six hours after transfection cells were treated with indicated concentrations of Hakin-1, Hakin-5 or the rest of the analogues tested for 36 h. Whole cell extracts were obtained in lysis buffer (20 mM Tris-HCl pH 7.5, 150 mM NaCl and 1% Triton X-100) containing 10 μg/ml leupeptin, 10 μg/ml aprotinin and 1 mM phenylmethanesulphonyl fluoride (PMSF), supplemented with 10 mM N-ethylmaleimide. Cells were harvested and subjected to western blotting using anti-HA antibody to detect ubiquitination.

[2] = tested on: HT-29 colon tumour cell line; assay: MTT cell viability assay, HT29; conditions: 72 h, analogues at 50-500 μM
Description: (§1) For cytotoxicity assays, 1×10^4 cells were seeded per well into a 96-well plate. After 24 h cells were treated with the indicated inhibitors for 72 h and a MTT colorimetric cell viability assay was performed following manufacturer's instructions (Sigma Aldrich, St Louis, Mo.). Absorbance was measured at 570 and 630 nm using a Multiskan Plus Reader (Nanoquant Infinite M200 Tecan Trading AG, Switzerland). Dose-response curves were designed with Graph Pad Prism Software and the half-maximal inhibitory concentration (IC50) values were calculated. Represented data are the mean±SEM of at least three independent experiments with six replicates per condition.

HT29 cells = assay: BrdU proliferation assay, HT29; conditions: 48 h
Description: (§2) For BrdU assays, 1×10^4 of indicated cells were plated per well into a 96-well plate. After 24 h, cells were treated with the indicated inhibitors for 48 h. Three independent experiments were plated with six replicates per each condition. Cells were treated with […] BrdU for 2 h. BrdU incorporation into newly synthesized DNA was measured using a cell proliferation colorimetric immunoassay kit according to the manufacturer's instructions (Roche, Switzerland). Results are expressed as mean±S.D. Results are represented as percentage of positive cells (mean±S.D) of three independent experiments.

HT-29 cells [3] = assay: Western blotting of EMT markers, HT-29; conditions: 48 h
Description: (§3) For western blot analysis, cells were treated with the indicated inhibitors for 48 h and the whole cell extracts were obtained as described previously. Twenty micrograms of lysates were resolved on a 10% polyacrilamide SDS-PAGE followed by western blot analysis performed as previously described. For immunofluorescence assays cells were grown for 24 h on glass coverslips and treated with the indicated inhibitors for 48 h. Cells were fixed with 4% PFA for 15 min, permeabilized with 0.5% […] and incubated with E-cadherin antibody for 2 h. Coverslips were incubated with fluorescein-tagged secondary antibody (Dakopatts, Sweden) for […]. Finally coverslips were mounted with ProLong Gold antifade reagent (LifeTech, UK) and images were taken in epifluorescence microscope (Olympus) using 40× objective.

[4] = tested on: Hakai-MDCK cell lines (clone 4 and clone 11); assay: MTT cell viability assay, Hakai-MDCK; conditions: both clones of Hakai-MDCK compared to MDCK; 72 h
Description: as §1

[5] = tested on: normal epithelial MDCK cell line; assay: MTT cell viability assay, MDCK; conditions: normal epithelial MDCK compared to Hakai-MDCK; 72 h
Description: as §1

HT-29 cells [6] = assay: Immunofluorescence of E-cadherin, HT-29; conditions: 48 h
Description: as §3

[7] = tested on: Hakai-transformed MDCK cells; assay: Phase-contrast cell phenotype, Hakai-MDCK
Description: MDCK, HEK293T, HepG2, MCF7 and ACHN cells were cultured in Dulbecco's Modified Eagles Medium (DMEM). MDCK stably expressing Hakai cells (Hakai-MDCK) were previously reported and were growth in DMEM with G418 (800 μg/ml). […] LoVo and PC-3 cells were cultured in F-12K Medium (Kaighn's Modification of Ham's F-12 Medium) and HT-29 cells in McCoy's 5a Medium Modified. 5637 cells were cultured in RPMI medium. All culture media were supplemented with 1% penicillin/streptomycin and 10% of heat-inactivated fetal bovine serum (FBS) at 37° C. in a humidified incubator with 5% CO2. Cells were monthly tested for mycoplasma contamination and used only for 1-3 months after defrosted. LoVo and HT29 cells were authenticated with the StemElite ID system (Promega). For phase-contrast images, culture cells were photographed with a Nikon Eclipse-TI microscope.

LoVo cells = assay: BrdU proliferation assay, LoVo; conditions: 48 h
Description: as §2

| ubiquitination mediated by Hakai (western blotting, anti-HA) [1] | Structure (SMILES) | cytotoxicity effect (cell viability, MTT) [2] | cell proliferation (BrdU) (HT29 cells) | E-cadherin levels (western blotting) (HT-29 cells [3]) | sensitivity to treatment (cell viability, MTT) [4] | sensitivity to treatment (cell viability, MTT) [5] | E-cadherin levels at cell-cell contacts (immunofluorescence) (HT-29 cells [6]) | mesenchymal phenotype (phase contrast) [7] | cell proliferation (BrdU) (LoVo cells) |
| --- | --- | --- | --- | --- | --- | --- | --- | --- | --- |
| inhibitory effect of Hakai activity | O=C(O)c1ccc(-n2nnnc2SCC(=O)c2ccc(Cl)s2)cc1 [Hakin A-23] | important inhibitory response | – | – | – | – | – | – | – |
| no effect was detected | CC(/C=C/C(=O)O)=C\CC(O)/C(C)=C/CCC(C)C(C)O (stereo not shown) [Hakin-5, (2E,4E,8E)-7,13-Dihydroxy-4,8,12-trimethyl-2,4,8-tetradecatrienoic acid, reference compound] | – | no effect was seen | no effect | more sensitive | more resistant | no effect | induction of an epithelial phenotype | no effect was seen |

Reference: patent US20220016080A1, “COMPOUNDS THAT SELECTIVELY AND EFFECTIVELY INHIBIT HAKAI-MEDIATED UBIQUITINATION, AS ANTI-CANCER DRUGS” (FUNDACIÓN PROFESOR NOVOA SANTOS, priority 2018, published 2022)
